Patent publication US20190225670A1, “COMPOUNDS AND METHODS FOR ACTIVATING TIE2 SIGNALING” (ASCLEPIX THERAPEUTICS, LLC, priority 2016, published 2019)

Legend:
VE-cadherin = VE-cadherin western blot and immunofluorescence in MEC monolayers; assay type: cell-based, human
Experimental: (§1) The jaggedness of these junctions is related to the structure of actin within the cell.
(§2) Glass-bottomed, 96-well plates with half well size were coated with 10 μg/ml FN1 for two hours at 37° C. The FN1 solution was then removed by aspiration and the plate seeded with 4×10^3 MECs in EGM-2MV media. After twenty-four hours, the cells were washed once with dPBS containing Ca^2+ and Mg^2+ to remove dead cells and the cells were allowed to grow for an additional twenty-four hours. For three-hour duration treatments (i.e., VE-cadherin), cells were washed twice with dPBS containing Ca^2+ and Mg^2+ and serum starved in EBM-2 for ninety minutes. The media was then removed and the cells were treated for three hours with 100 μl of EBM-2 media containing 200 ng/ml Ang2 or PBS and varying concentrations of AXT107 or DMSO. For fifteen minute-treated samples (i.e., phospho-Tie2), the cells were serum starved in EBM-2 media for 165 minutes, incubated for ninety minutes with varying concentrations of AXT107 or DMSO in EBM-2, and finally stimulated for fifteen minutes with 200 ng/ml Ang2 or PBS supplemented with peptide to retain the same concentrations. These times were chosen so that both treatment procedures would be completed at the same time. The cells were then washed twice with cold dPBS containing Ca^2+ and Mg^2+ and fixed in 10% neutral buffered formalin for fifteen minutes. […]

integrin α5β1 = integrin α5β1 (Homo sapiens, UniProt P05556+P08648); details: Lee et al., Sci Rep. 2014; cited from earlier work
Sequence of integrin α5β1 (P08648 42-1049): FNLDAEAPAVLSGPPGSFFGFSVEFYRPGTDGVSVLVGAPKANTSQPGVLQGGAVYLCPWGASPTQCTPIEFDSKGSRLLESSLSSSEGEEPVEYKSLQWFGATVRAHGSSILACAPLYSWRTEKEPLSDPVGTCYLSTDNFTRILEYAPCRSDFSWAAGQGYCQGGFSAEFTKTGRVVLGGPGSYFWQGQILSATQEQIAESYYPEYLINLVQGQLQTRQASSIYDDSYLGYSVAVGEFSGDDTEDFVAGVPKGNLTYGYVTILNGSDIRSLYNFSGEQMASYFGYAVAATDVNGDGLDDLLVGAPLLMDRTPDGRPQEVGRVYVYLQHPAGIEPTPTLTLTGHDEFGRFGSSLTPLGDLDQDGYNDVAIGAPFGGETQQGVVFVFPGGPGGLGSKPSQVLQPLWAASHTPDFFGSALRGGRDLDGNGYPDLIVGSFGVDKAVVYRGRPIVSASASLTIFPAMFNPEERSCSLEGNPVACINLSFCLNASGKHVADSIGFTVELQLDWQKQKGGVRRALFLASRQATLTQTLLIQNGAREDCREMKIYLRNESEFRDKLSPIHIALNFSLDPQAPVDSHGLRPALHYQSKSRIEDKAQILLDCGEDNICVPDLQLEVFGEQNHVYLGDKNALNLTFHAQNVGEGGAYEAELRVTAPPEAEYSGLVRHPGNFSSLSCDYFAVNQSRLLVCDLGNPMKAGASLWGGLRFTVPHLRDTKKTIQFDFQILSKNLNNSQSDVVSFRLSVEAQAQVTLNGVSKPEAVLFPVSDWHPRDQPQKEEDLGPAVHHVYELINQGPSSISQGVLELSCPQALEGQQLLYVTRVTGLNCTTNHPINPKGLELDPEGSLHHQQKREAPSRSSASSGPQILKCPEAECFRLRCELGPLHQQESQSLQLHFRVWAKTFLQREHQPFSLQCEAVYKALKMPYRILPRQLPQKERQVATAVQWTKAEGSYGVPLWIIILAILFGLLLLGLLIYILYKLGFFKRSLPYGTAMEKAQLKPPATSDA
Sequence of integrin α5β1 (P05556 21-798): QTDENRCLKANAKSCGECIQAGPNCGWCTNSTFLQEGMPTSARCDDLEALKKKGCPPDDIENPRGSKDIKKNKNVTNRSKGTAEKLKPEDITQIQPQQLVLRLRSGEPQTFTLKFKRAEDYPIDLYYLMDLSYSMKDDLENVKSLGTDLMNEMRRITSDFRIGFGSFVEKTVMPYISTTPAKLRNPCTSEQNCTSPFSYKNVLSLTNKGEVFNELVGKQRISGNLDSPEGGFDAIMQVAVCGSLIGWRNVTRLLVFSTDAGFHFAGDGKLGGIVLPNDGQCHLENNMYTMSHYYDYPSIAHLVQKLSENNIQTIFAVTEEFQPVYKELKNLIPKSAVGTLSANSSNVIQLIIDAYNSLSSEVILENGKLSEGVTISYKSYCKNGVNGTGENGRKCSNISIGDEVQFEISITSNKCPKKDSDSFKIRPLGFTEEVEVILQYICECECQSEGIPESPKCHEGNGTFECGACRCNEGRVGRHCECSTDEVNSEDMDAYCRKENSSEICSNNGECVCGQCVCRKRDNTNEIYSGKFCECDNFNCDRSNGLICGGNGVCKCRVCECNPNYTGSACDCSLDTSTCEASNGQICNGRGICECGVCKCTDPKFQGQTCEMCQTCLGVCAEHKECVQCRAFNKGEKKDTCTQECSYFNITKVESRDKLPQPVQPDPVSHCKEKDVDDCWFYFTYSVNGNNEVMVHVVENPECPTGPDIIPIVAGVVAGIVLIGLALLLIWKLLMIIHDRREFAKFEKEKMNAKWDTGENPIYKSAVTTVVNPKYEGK

[1] = test system: VEGFR2, c-Met, IGF1R, and PDGFRβ; details: Lee et al., Sci Rep. 2014; cited from earlier work
integrin αvβ3 = integrin αvβ3 (Homo sapiens, UniProt P05106+P06756); details: Lee et al., Sci Rep. 2014; cited from earlier work
Sequence of integrin αvβ3 (P06756 31-1048): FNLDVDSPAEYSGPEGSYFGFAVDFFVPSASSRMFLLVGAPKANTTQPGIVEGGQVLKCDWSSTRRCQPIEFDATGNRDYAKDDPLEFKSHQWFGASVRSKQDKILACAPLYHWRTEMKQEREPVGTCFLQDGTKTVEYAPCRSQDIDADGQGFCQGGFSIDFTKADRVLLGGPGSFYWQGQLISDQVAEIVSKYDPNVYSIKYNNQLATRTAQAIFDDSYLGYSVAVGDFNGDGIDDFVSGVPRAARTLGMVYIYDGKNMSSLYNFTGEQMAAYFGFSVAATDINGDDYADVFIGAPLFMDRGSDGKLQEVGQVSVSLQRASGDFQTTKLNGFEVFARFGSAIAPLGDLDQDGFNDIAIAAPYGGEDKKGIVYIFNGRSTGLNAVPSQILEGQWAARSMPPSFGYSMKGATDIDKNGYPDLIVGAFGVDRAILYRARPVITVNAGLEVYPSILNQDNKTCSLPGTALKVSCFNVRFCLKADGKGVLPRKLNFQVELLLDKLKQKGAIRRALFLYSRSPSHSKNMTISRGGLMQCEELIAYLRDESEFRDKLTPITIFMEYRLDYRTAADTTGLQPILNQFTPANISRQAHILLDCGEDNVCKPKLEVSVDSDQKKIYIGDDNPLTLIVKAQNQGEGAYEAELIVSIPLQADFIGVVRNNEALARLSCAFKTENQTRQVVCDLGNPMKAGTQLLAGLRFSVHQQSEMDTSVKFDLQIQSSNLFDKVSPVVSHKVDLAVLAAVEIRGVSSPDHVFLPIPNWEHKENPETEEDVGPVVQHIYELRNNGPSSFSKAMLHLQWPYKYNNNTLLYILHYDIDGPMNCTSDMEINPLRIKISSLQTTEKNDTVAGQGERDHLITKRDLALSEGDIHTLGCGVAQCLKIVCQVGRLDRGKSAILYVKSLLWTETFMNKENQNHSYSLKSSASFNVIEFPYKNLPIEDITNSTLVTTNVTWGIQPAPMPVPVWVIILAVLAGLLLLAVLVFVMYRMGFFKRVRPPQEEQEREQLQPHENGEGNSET
Sequence of integrin αvβ3 (P05106 27-788): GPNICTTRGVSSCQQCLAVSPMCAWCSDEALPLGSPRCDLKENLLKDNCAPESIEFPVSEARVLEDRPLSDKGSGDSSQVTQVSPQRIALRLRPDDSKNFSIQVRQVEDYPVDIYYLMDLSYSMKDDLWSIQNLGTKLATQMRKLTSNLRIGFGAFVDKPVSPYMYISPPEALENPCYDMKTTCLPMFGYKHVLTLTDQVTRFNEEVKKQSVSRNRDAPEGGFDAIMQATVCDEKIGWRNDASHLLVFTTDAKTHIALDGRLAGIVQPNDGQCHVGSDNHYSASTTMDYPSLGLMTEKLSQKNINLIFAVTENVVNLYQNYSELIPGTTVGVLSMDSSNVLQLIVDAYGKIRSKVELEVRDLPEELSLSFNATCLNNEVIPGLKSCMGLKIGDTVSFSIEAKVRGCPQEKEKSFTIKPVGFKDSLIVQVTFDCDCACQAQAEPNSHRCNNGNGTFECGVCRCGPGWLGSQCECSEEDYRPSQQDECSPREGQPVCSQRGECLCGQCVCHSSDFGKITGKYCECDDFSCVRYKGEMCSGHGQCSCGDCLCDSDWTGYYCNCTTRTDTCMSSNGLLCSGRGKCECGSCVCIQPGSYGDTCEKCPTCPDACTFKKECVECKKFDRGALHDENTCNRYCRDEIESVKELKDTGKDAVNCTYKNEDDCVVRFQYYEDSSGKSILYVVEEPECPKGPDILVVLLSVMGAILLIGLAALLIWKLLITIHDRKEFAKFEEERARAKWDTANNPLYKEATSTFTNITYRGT

phospho-Tie2 (Y992) = assay: Immunofluorescence of phospho-Tie2 in MEC monolayers; assay type: cell-based, human; details: 200 ng/ml Ang2 15 min and AXT107
Experimental: As such, subsequent experiments evaluate the effects of AXT107 at cell-cell junctions in MEC monolayers using immunofluorescence microscopy rather than at the EC-ECM interface.
as §2, with “time.” for “time. The cells were then washed twice with cold dPBS containing Ca^2+ and Mg^2+ and fixed in 10% neutral buffered formalin for fifteen minutes.”

Akt = assay: Western blot of phospho-Akt (S473) in MEC lysates treated with Ang2 and AXT107; assay type: cell-based, human
Experimental: A confluent monolayer of human microvascular endothelial cells (HMEC) was serum starved with EBM-2 overnight. After a 90 min treatment with AXT107 at concentrations of 0, 10, 32, and 100 μM, the cells were treated for 15 min with 1 mM sodium orthovanadate. Next the cells were treated with Angiopoietin-2 (Ang-2) at 200 ng/mL for 15 min. Following cell lysis, the lysates were immunoblotted for pTie2 (Y992), pSTAT3 (Y705), and pAkt (S473).
For Ang1/2 signaling investigations, cell culture dishes (10 cm diameter) were coated with 5 μg/ml fibronectin (FN1; Sigma-Aldrich, St. Louis, Mo.) for two hours at 37° C. The FN1 solution was then removed by aspiration and 5×10^6 microvascular endothelial cells (MECs; Lonza, Walkersville, Md.) were plated in EGM-2MV media (Lonza) and cultured for forty-eight hours at 37° C. […] Specific proteins were identified by Western blot, using the following primary antibodies: Cell Signaling—phospho-Tie2 (Y992) (Cat#: 4221), Tie2 (Cat#: 7403), phospho-Stat3 (Y705) (Cat#: 4113), Stat3 (Cat#: 4904), phospho-Akt (S473) (Cat#: 4058), Akt (Cat#: 9272), phospho-p44/42 MAPK (T202/Y204) (Cat#: 4370), p44/42 MAPK (Cat#: 4695); BD Transduction Laboratories—β1 integrin (Cat#: 610467); Millipore—α5 integrin (Cat#: AB1928) and detected with HRP-conjugated goat anti-rabbit and sheep anti-mouse secondary antibodies (GE healthcare).

F-actin = F-actin immunofluorescence in MEC monolayers; assay type: cell-based, human; details: 200 ng/ml Ang2, increasing concentrations of AXT107
Experimental: as §1, §2

For LRRFSTAPFAFIDINDVINF [AXT107], the “distribution of VE-cadherin at junctions” value (VE-cadherin; 200 ng/ml Ang2, increasing concentrations of AXT107) is given as “became progressively smoother”, the “total level of VE-cadherin” value (VE-cadherin; three hours of AXT107 and 200 ng/ml Ang2) is given as “remained unchanged” and the “binding to integrin α5β1” value (integrin α5β1) is given as “binds tightly”. The “receptor phosphorylation and downstream signals of RTKs” value [1] was “significantly decreases”, the “binding to integrin αvβ3” value (integrin αvβ3) was “binds tightly” and the “phospho-Tie2 fluorescence intensity and distribution” value (phospho-Tie2 (Y992)) was “increased overall fluorescence intensity and redistributed phospho-Tie2 along cell-cell junctions and into large clusters”. The Akt phosphorylation (Akt) was “increased phosphorylation” and the actin fiber arrangement (F-actin) was “became more cortical”.
